In article PMC3788796, “The Antimicrobial Domains of Wheat Puroindolines Are Cell-Penetrating Peptides with Possible Intracellular Mechanisms of Action” (PLoS ONE, 2013):
≈ marks a conversion by molar mass, not a printed value. Where “and” joins values, the source holds several entries; their conditions need not be identical. Equal values may be shown once.

Assays:
[1] = Calcein dye leakage from mammalian-mimicking LUVs; assay type: biochemical; settings: positive control, 1.0% Triton X100; average of duplicate experiments
Method: (§1) A calcein leakage assay as previously described was performed to determine the effects of PIN-based peptides on the permeability of synthetic large unilamellar vesicles (LUVs), designed to mimic bacterial and mammalian cell membranes. The phospholipids used were DOPC (1,2-dioleoyl-sn-glycero-3-phosphocholine), with zwitterionic head groups and DOPG (1,2-dioleoyl-sn-glycerol-3-[phosphor-rac-(1-glycerol)]), with negatively charged headgroups (Avanti® Polar lipids, Alabaster, USA). These were used to make DOPC:DOPG (1∶3) LUVs to mimic bacterial cell membranes, or DOPC only, to mimic mammalian cell membranes. Calcein-entrapped LUVs were prepared by the extrusion method using an Avanti mini extrusion apparatus (Avanti® Polar Lipids, Alabaster, USA). The DOPC:DOPG (a 1∶3 mixture) or DOPC were dissolved in chloroform (25 mg/mL) and aliquoted into glass test tubes to give a concentration of 2.6 mM when resuspended in 2 mL buffer. Chloroform was evaporated under a stream of N2 and the lipid films were dried overnight under vacuum. The films were then resuspended in 2.0 mL of 70 mM calcein buffer (in 10 mM Tris-HCl, pH 7.4) and incubated at room temperature for 30 minutes. To increase entrapment of the dye, five repeated freeze\thaw cycles were used by placing the vial in liquid N2 and then a warm water bath (37°C). The lipid mixture was then extruded through the mini-extruder 10 times through two stacked 0.1 µm pore-size filters. Free calcein was removed by centrifugation (10, 000×g, 10 min) three times and washing with 10 mM Tris, 100 mM NaCl buffer (pH 7.4). Standards of phosphorus (inorganic P; Pi) were prepared (0.05–1.5 mg/mL) using KH2PO4 and read at 820 nm and a linear standard curve was generated (Figure S1 in File S1). The phospholipid concentration of the vesicle preparations was determined by a total phosphorus assay. The assay reagent was prepared fresh by mixing 1 part of 1% ascorbic acid with 6 parts of 0.42% ammonium molybdate•4H2O in H2SO4 and stored on ice. 7 µL of it was added to 3 µL of vesicle suspensions and incubated for 20 min at 45°C. […] The standard curve of phosphorus standards (Figure S1 in File S1) was used to determine the Pi concentration in a LUV preparation, and this was converted to phospholipid concentration (Table S1 in File S1) to adjust the preparations to the required 10 µM phospholipid concentration prior to peptide treatment.
(§2) The calcein-filled LUVs were diluted with 10 mM Tris, 100 mM NaCl buffer (pH 7.4) to a final phospholipid concentration of 10 µM. The experiments were performed in a Varian Cary Eclipse fluorescence spectrophotometer with excitation and emission wavelengths of 496 nm and 515 nm, slit widths of […] and a PMT detector of 600 V. The peptides (PuroA, Pina-M, Pina-W→F and PuroB) were added to LUVs to a final peptide concentration of 8–125 µg/mL in 100 µL volumes and the fluorescence (F) monitored for 5 min at 60 s intervals. The total calcein fluorescence (FT) was determined by addition of 1.0% Triton X100. The dye leakage was calculated as % Leakage = ((F – F0)/(FT – F0)), F0 being fluorescence of each sample at T = 0.

[2] = Calcein dye leakage from bacteria-mimicking LUVs; assay type: biochemical; settings: positive control, 1.0% Triton X100; average of duplicate experiments
Method: as §1, §2

[3] = tested on: plasmid DNA (pBluescript SK+); test: Gel retardation assay for in vitro DNA binding; settings: 100 ng plasmid DNA in 10 µL MilliQ water, 1 h room temperature, peptide 16–500 µg/mL, post-electrophoresis EtBr staining, triplicate assays; for Peptide concentration inducing gel retardation, Full: complete inhibition of migration
Method: This test assesses any peptide-DNA binding by noting the retardation of the rate of migration of DNA bands through agarose gels. A number of methods were tested. As per Hsu et al., DNA of a plasmid (200 ng) or a commercial molecular weight marker (50 ng) was mixed with a peptide (to final concentrations of 32, 64, 125 or 250 µg/mL) in 15 µL of 10 mM Tris-1 mM EDTA buffer (pH 8.0), incubated at room temperature for 2 min, then electrophoresed in 0.5% or 1.0% agarose gels containing 0.5 µg/mL ethidium bromide (EtBr). Following Park et al., 100 ng plasmid DNA was mixed with a peptide (to different concentrations) in 20 µL binding buffer (5% glycerol, 10 mM Tris-HCl (pH 8.0), 1 mM EDTA, 1 mM DTT, 20 mM KCl, 50 µg/mL BSA), held for 1 h at room temperature, then electrophoresed in EtBr-containing gels. Finally the protocols were modified to eliminate any interference of EtBr in the initial peptide-DNA binding. Plasmid DNA (100 ng) was mixed with a peptide (to final concentrations of 16, 32, 64, 125, 250 or 500 µg/mL) in 10 µL of MilliQ water, held at room temperature for 1 h and electrophoresed, followed by emersion of gels in EtBr solution (0.5 µg/mL) for 30 min before imaging.

E. coli cells = settings: data from previous work; cited from earlier work
S. cerevisiae cells = test: Propidium iodide uptake by yeast cells; assay type: cell-based, Saccharomyces cerevisiae; settings: peptide 125 µg/mL, 1 h 30°C in PBS pH 7.4, PI 6 µg/mL 5 min; no-peptide control 5.7; average of 4 fields, two independent experiments
Method: S. cerevisiae was grown overnight at 30°C in 100 mL PDB and the cells collected by centrifugation and resuspended in Phosphate Buffered Saline (PBS: 137 mM NaCl, 2.7 mM KCl, 8 mM Na2HPO4, 1.46 mM KH2PO4; pH 7.4) to ∼1.5×10^7 cells/mL (OD600 = 0.6–0.8). 75 µL of the suspension was incubated with 25 µL of stock solutions of PuroA, Pina-M, Pina-W→F, PuroB and indolicidin (to give a final peptide concentration of 64, 125, 250 or 500 µg/mL), or with PBS (for no-peptide controls) for 1 h at 30°C, followed by staining with propidium iodide (PI) as described. PI stock solution (60 µg/mL) was prepared in MilliQ water and stored in dark at −20°C. It was diluted to 12 µg/mL before use, mixed 1∶1 with peptide-treated or untreated yeast cells (to final PI concentration 6 µg/mL), and the samples incubated in the dark for 5 min. A 10 µL aliquot of these was examined using a Nikon Eclipse 50 i fluorescence microscope with 561 nm excitation and 630/22 emission filter, at 400×magnification. The photomicrographs were taken under light and fluorescence for each field. Five randomly selected fields were recorded and scored for each sample.

E. coli (ATCC 25922) = test: E. coli filamentation assay (in vivo inhibition of DNA synthesis); assay type: cell-based, Escherichia coli; settings: peptide 2–250 µg/mL, 3 h 37°C, Crystal Violet, light microscopy 1000×; triplicate
Method: The method as described was used to assess if the PIN-based peptides cause filamentation of E. coli cells, indicative of inhibition of in vivo DNA synthesis. E. coli (ATCC 25922) grown to logarithmic phase (OD600 = 0.2) was diluted to OD600 of ∼0.04. 75 µL of this culture was mixed with 25 µL of a peptide solution (to a final peptide concentration of 2–250 µg/mL) and incubated for 3 h at 37°C. 50 µL of the sample was spotted onto a glass slide, air dried, and stained with Crystal Violet for 1 min. Peptide mixed with water was used as negative control, and the Trp-rich AMP indolicidin (ILPWKWPWWPWRR-NH2) was used as a positive control due to its known filamentation effect. All samples were tested in triplicate. The cells were observed by light microscopy (1000×magnification).

[4] = tested on: Saccharomyces cerevisiae (ATCC 287); test: MIC of the peptides against yeast cells; assay type: cell-based; settings: PDB, 96-well two-fold dilution 250 to 2 µg/mL, 0.5–2×10^3 cells/mL, overnight 30°C, growth observed visually
Method: Saccharomyces cerevisiae (ATCC 287) was grown in Potato Dextrose Broth (PDB) overnight at 30°C with shaking at 220 rpm. The cultures were vortexed vigorously and the cell suspension adjusted to 1–5×10^6 cells/mL with PDB (McFarland standard 0.5) and then diluted 1∶200 with PDB to a final concentration of 0.5–2×10^3 cells/mL [37]. The MIC assays were carried out in 96-well plates as described previously. Peptides (PuroA, Pina-M, Pina-W→F and PuroB) in 25 µL volumes were added to the first empty well and a two-fold dilution was carried out across each row with a starting peptide concentration of 250 µg/mL and a final one of 2 µg/mL. Test wells were subsequently inoculated with 75 µL yeast cells (0.5–2×10^3 cells/mL) and incubated overnight at 30°C. Negative control (no peptide) and positive control (fungicide Mycobutanil) wells were also prepared. The MIC was defined as the lowest concentration of the peptide required to inhibit fungal growth, observed visually.

| Compound | % Calcein leakage from DOPC LUVs [1] [%] | % Calcein leakage from DOPC:DOPG LUVs [2] [%] | Peptide concentration inducing gel retardation, Partial [3] [µg/mL] | Peptide concentration inducing gel retardation, Full [3] | MIC against E. coli cells (E. coli cells) [µg/mL] | Peptide concentration inducing gel retardation, Full ([3]; listed as indolicidin) [µg/mL] | % fluorescent cells (propidium iodide uptake) (S. cerevisiae cells) [%] | Minimum peptide concentration inducing filamentation in E. coli (E. coli (ATCC 25922)) [µg/mL] | MIC against S. cerevisiae [4] [µg/mL] |
| --- | --- | --- | --- | --- | --- | --- | --- | --- | --- |
| Triton x100 [reference compound] | 99.0 | 99.0 | – | – | – | – | – | – | – |
| MPLSWFFPRTWGKR-NH2 [GSP-5D, peptide based on the wheat Grain softness protein-1 (Gsp-1-5D)] | – | – | 32 ± 0 | 64 µg/mL and 64 ± 0 µg/mL | 64 ± 0 | – | – | – | – |
| CC[C@H](C)[C@H](N)C(=O)N[C@@H](CC(C)C)C(=O)N1CCC[C@H]1C(=O)N[C@@H](Cc1c[nH]c2ccccc12)C(=O)N[C@@H](CCCCN)C(=O)N[C@@H](Cc1c[nH]c2ccccc12)C(=O)N1CCC[C@H]1C(=O)N[C@@H](Cc1c[nH]c2ccccc12)C(=O)N[C@@H](Cc1c[nH]c2ccccc12)C(=O)N1CCC[C@H]1C(=O)N[C@@H](Cc1c[nH]c2ccccc12)C(=O)N[C@@H](CCCNC(=N)N)C(=O)N[C@@H](CCCNC(=N)N)C(N)=O [Indolicidin, reference compound] | – | – | 32 ± 0 | 64 ± 0 µg/mL | 32 ± 0 (≈ 16.8 µM) | 64 | 100 | 32 ± 0 | 125 |
